Consider two compounds from patent US5338548A, “Method for increasing the storage stability of physostigmine” (priority 1993, dated 1994).

Values joined by “and” are separate entries in the source; they are usually repeats but may differ in a detail not shown here. Equal values may be shown once. “Also recorded” adds a separate entry of the source.

Series [1] has as its system tardive dyskinesia. The conditions noted are these: American Journal of Psychiatry, 134(7), 769-774; cited from earlier work.
For series [2] the following is noted: tablets, oral dosage; cited from earlier work.
In series [3] the test system is long-term memory. The conditions noted are these: Davis et al., Science 201, 272 (1978); cited from earlier work.
The subject of series [4] is skeletal muscle contraction. The conditions noted are these: background, myasthenia gravis; cited from earlier work.
For series [5] the following is noted: systemic use; cited from earlier work.
Series [6] has as its system skin of rabbits. The series can be described thus: In Vivo Test of Physostigmine Free Base Patches (rabbit skin flux, 23 hours). On the procedure:
Pellethane™ 2363-80AE (24.4 g) was added to a solution of 101.3 g of THF containing 2.903 g of physostigmine free base and 2.951 g of isopropyl myristate and stirred until a clear solution was formed. After evaporation of the THF solvent, the liquid cast film of 2000 μm produced a dry matrix film 180-230 μm thick. A solution of Avery adhesive 460, containing 10 wt % isopropyl myristate was cast on the drug/polymer matrix film to produce an adhesive layer approximately 801 μm thick. The film was finally overlaid with a release liner film 1022 available from 3M Company and patches with an area of 7.92 cm^2 were cut from the laminated structure. These patches were weighed, heat sealed into polyethylene-foil pouches and stored until use.
The patches were then placed on the skin of rabbits from which the hair had been carefully clipped, after 23 hours, the patches were removed and the in vivo skin fluxes determined and summarized in Table II.

Series [7] can be described thus: Stability of Physostigmine Free Base in Polymer Matrix (patch storage, HPLC recovery). Type of series: physicochemical. The conditions noted are these: for Weight of Physostigmine free base Recovered: polyurethane patch, n = 3. On the procedure:
Increased stability of physostigmine free base in polymer matrices over solutions is shown in the following experiments. Patches containing physostigmine free base in a polymer matrix were prepared by dissolving 18 g of a polyether based polyurethane produced by Dow under the name Pellethane™ grade 2363-80AE, 2.0 g physostigmine free base and 2.0 g isopropyl myristate in 80 g THF. The solution was allowed to stand until clear. A second identical lot of polymer/drug solution was prepared containing 0.02 g of acetyl cystine. Clear solutions were cast onto the reverse side of a polyester-based release liner available from 3M Company of Minneapolis under the trade name Scotch™ 1002. After evaporation of the THF solvent, the liquid cast film of 2000 μm produced a dry matrix film 200-230 μm thick. Patches with an area of 7.9 cm^2 were cut from these laminated structures, packaged in polyethylene foil pouches and stored at room temperature and at 45° C.
Three patches from each lot were tested for physostigmine free base content immediately after manufacture and after 7 and 25 days of storage at room temperature and at 45° C. Once the backing was removed from the patch, the drug-containing film was weighed and then dissolved in 25 g of THF, followed by dilution with 25 g on methanol. Precipitated Pellethane™ was filtered from the solution before injection into the HPLC. Average amounts of physostigmine free base recovered from the patches, with and without acetyl cysteine, are given in Table I. Theoretical drug loadings were 17.2 and 16.2 mg for the stabilized and unstabilized patches, respectively. Scatter in the weight data can be attributed to variation in film weights and analytical errors amounting to as much as ±10%.

Series [8] can be described thus: Stability of Physostigmine Free Base in Aqueous Solution (and in ethanol, isopropyl myristate), HPLC. Type of series: physicochemical. On the procedure:
Relative stability of physostigmine free base in neutral or alkaline solution was determined as follows. Methanolic solution of physostigmine free base was acidified with a few drops of hydrochloric acid to lower the pH to about 3-6. […] Analysis was performed using HPLC Nova Pak 4-C18 column and a mobile phase consisting of:
0.63 g 85% Phosphorous Acid
0.96 g Sodium pentasulphonate
In the same manner, stability of physostigmine free base in neutral or slightly acidified water was determined and is shown in FIG. 2. […] In ethanol solution, 5% of the physostigmine free base was lost after 7 days and 10% after 27 days. At this rate of degradation, a patch would have lost 72% of its active ingredient in one year and 92% in two years.

Setting [9] is: individual patch (patch 1-12), 23 hours on rabbit skin.

As for `CNC(=O)Oc1ccc2c(c1)[C@]1(C)CCN(C)[C@@H]1N2C` [Physostigmine], the “therapeutic effects on tardive dyskinesia” value in series [1] was “positive therapeutic effects on tardive dyskinesia”. The “drug blood levels for multiple oral doses” value in series [2] is “typical variations in blood concentration ranging from a maxima above the required level (and possibly in the toxic range) to a minima which may be below the effective dose”. Besides, in series [3], the “retrieval of information from long-term memory” value is on record as “improved” and the “storage of information into long-term memory” value is on record as “significantly enhanced storage of information into long-term memory”. Besides, the “strength of muscular contraction” value in series [4] was “increased strength of muscular contraction”. The therapeutic window result in series [5] is listed as “narrow therapeutic window”.

As for `CNC(=O)Oc1ccc2c(c1)[C@]1(C)CCN(C)[C@@H]1N2C` [Physostigmine free base], the “Drug Delivered ΔMass” value was 14.0 mg in series [6] (Average of patches 1-12); 15.0 mg and 14.0 mg and 15.7 mg and 12.0 mg and 16.0 mg and 12.8 mg and 14.3 mg and 13.7 mg and 15.2 mg and 12.7 mg and 11.8 mg in series [6] (setting [9]). Moreover, the “Drug Delivered ΔMass (%)” value was 69% in series [6] (Average of patches 1-12); 67% and 69% and 70% and 71% and 68% in series [6] (setting [9]). The “Drug Remaining in Patch” value in series [6] (Average of patches 1-12) is 6.3 mg; in series [6] (individual patch (patch 1-12), 23 hours on rabbit skin, measured by HPLC) it was 7.4 mg and 6.8 mg and 7.1 mg and 5.2 mg and 6.7 mg and 6.2 mg and 6.5 mg and 5.7 mg and 4.9 mg. Further, the ΔMass/time in series [6] (Average of patches 1-12) is 0.61 mg/h; in series [6] (setting [9]), 0.65 mg/h and 0.61 mg/h and 0.68 mg/h and 0.52 mg/h and 0.70 mg/h and 0.56 mg/h and 0.62 mg/h and 0.60 mg/h and 0.66 mg/h and 0.55 mg/h and 0.51 mg/h. In addition, the “Average Total Flux” value is 77 μg/cm^2 · hr in series [6] (Average of patches 1-12, patch area 7.9 cm^2); 82 μg/cm^2 · hr and 77 μg/cm^2 · hr and 86 μg/cm^2 · hr and 66 μg/cm^2 · hr and 88 μg/cm^2 · hr and 71 μg/cm^2 · hr and 78 μg/cm^2 · hr and 75 μg/cm^2 · hr and 83 μg/cm^2 · hr and 70 μg/cm^2 · hr and 64 μg/cm^2 · hr in series [6] (individual patch (patch 1-12), patch area 7.9 cm^2, 23 hours on rabbit skin). In addition, in series [6] (over the 23 hour period), the drug delivered result is given as “approximately 70%”. Moreover, the “Average Physostigmine free base flux” value in series [6] (text after Table II) was 160 μg/cm^2 ·h. For the same compound, the discoloration of patches entry in series [7] (25 days at 45° C.) is “slightly discolored”. Also, the “Weight of Physostigmine free base Recovered” value in series [7] (No Preservative, 45° C., 0 days) was found to be 15.0 mg; in series [7] (No Preservative, 45° C., 7 days) it was 16.8 mg; in series [7] (No Preservative, 45° C., 25 days) it was 18.5 mg; in series [7] (No Preservative, Room Temperature, 0 days), 15.0 mg; in series [7] (No Preservative, Room Temperature, 7 days), 16.5 mg; in series [7] (No Preservative, Room Temperature, 25 days), 16.8 mg. Besides, the “Weight of Physostigmine free base Recovered” value in series [7] (With Preservative, 45° C., 0 days) is reported as 15.1 mg; in series [7] (With Preservative, 45° C., 7 days), 16.8 mg; in series [7] (With Preservative, 45° C., 25 days) it was 16.8 mg; in series [7] (With Preservative, Room Temperature, 0 days) it was 15.1 mg; in series [7] (With Preservative, Room Temperature, 7 days), 17.3 mg; in series [7] (With Preservative, Room Temperature, 25 days), 16.8 mg. Besides, the “additional peaks in HPLC analysis” value in series [7] (patches stored 25 days at 45° C.) is reported as “no additional peaks were observed”. For the same compound, the “physostigmine free base loss during storage” value in series [7] (polyurethane patches, room temperature or 45° C., up to 25 days) is recorded as “no measurable physostigmine free base loss”. In series [8] (ethanol solution, after 7 days, read-out: physostigmine free base lost in ethanol solution), the degraded at 168 h was determined as 5%. The degraded at 648 h in series [8] (ethanol solution, after 27 days, read-out: physostigmine free base lost in ethanol solution) amounted to 10%. The “appearance of degradation (pink solution, rubreserine)” value in series [8] (methanolic solution acidified with HCl to pH about 3-6, after one or two hours) is given as “became pink due to accumulation of the degradation product rubreserine; also recorded: appearance of degradation products of the pink solution”. Further, the “loss of initial drug in neutral solution” value in series [8] (neutral water, within 30 days, same storage conditions, FIG. 2) is “degrades rapidly with more than half of the initial drug gone”. Also, in series [8] (room temperature, pH 3, FIG. 2), the “stability in slightly acidified water” value was “more stable, and slightly pink”. Also, the “rate of degradation in ethanol and isopropyl myristate” value in series [8] (solvents ethanol and isopropyl myristate, compared with unbuffered and acidified water) is recorded as “slower than with unbuffered water but faster than with acidified water”.
